Consider 35 molecules from US20240109853A1 (Shanghai Yao Yuan Biotechnology Co., Ltd., priority 2020, published 2024).

Like-named read-outs stand apart in the source and are kept apart here.

The target in this assay is ALPK1 (Homo sapiens (Human), UniProt Q96QP1). Put plainly: ALPK1 in vitro kinase assay (HTRF of TIFA phosphorylation). It is filed as biochemical. (TR-FRET usually uses a lanthanide donor and a delayed reading to cut background.)
Where [1] appears, read: ALPK1 2 nM, TIFA substrate, ADP-Heptose activator, HTRF readout.

By IC50 is commonly meant the concentration needed to halve the response being measured. Read a high IC50 as weaker potency in that assay.

ALPK1, sequence (Q96QP1 whole entry): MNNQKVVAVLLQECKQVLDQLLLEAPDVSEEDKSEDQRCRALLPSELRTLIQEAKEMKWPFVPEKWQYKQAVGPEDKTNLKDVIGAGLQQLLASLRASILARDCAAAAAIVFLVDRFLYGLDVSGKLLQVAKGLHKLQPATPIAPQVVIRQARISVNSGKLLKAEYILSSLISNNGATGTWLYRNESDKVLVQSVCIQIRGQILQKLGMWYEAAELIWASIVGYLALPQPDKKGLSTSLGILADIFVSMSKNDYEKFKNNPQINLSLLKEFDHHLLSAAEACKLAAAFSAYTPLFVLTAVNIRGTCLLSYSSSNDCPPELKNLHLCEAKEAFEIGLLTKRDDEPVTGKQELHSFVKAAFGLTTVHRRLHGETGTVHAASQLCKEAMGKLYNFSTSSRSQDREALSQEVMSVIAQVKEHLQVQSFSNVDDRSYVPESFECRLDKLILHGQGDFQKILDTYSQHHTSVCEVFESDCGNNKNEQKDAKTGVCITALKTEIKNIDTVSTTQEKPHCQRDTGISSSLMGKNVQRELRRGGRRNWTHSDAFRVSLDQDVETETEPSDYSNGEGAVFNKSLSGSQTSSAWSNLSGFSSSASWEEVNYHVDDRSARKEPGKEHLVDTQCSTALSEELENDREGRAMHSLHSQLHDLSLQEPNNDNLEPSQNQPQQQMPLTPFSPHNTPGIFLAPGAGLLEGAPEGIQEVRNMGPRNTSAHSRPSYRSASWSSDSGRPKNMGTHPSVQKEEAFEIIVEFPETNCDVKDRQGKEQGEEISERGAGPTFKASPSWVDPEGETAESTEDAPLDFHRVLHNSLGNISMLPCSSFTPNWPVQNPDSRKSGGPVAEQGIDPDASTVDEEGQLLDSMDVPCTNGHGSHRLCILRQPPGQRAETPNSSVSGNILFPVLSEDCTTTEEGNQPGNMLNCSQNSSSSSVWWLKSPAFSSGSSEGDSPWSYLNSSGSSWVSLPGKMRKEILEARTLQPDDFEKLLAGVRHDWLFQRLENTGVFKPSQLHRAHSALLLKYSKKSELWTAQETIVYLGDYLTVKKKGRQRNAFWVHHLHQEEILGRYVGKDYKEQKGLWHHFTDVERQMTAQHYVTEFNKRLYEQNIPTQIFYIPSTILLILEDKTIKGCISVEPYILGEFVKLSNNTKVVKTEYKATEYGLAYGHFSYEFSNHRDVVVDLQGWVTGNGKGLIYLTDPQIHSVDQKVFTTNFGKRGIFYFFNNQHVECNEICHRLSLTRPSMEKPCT

Under setting [1], `C#C[C@@](C)(c1ccc(Cl)cc1)c1csc(NC(=O)c2c(F)cc(N3CCC(N)C3)cc2F)n1` (stereo in doubt) [Example B088, 4-(3-aminopyrrolidin-1-yl)-N-(4-(2-(4-chlorophenyl)but-3-yn-2-yl)thiazol-2-yl)-2,6-difluorobenzamide] came in with a 50% inhibitory concentration (IC50) of 0.042 µM.

`C#CC(CC)(c1ccc(Cl)cc1)c1csc(NC(=O)c2c(F)cc(N3CCNCC3)cc2F)n1` (centres unmarked) [Example C047, N-(4-(3-(4-chlorophenyl)pent-1-yn-3-yl)thiazol-2-yl)-2,6-difluoro-4-(piperazin-1-yl)benzamide]: the IC50 under setting [1] worked out at 0.131 µM.

The molecule `C#C[C@](C)(c1ccc(Cl)cc1)c1csc(NC(=O)c2c(F)cc(N3CCN(CCO)CC3)cc2F)n1` [Example C022, (R)-N-(4-(2-(4-chlorophenyl)but-3-yn-2-yl)thiazol-2-yl)-2,6-difluoro-4-(4-(2-hydroxyethyl)piperazin-1-yl)benzamide] yielded an IC50 under setting [1] of 0.188 µM.

Under setting [1], `COc1ccc(C(C)(C)c2csc(NC(=O)c3ccc(OC4CCN(CCO)CC4)cc3)n2)cc1` [Example B020, 4-((1-(2-hydroxyethyl)piperidin-4-yl)oxy)-N-(4-(2-(4-methoxyphenyl)propan-2-yl)thiazol-2-yl)benzamide] gave an IC50 of 0.17 µM.

Under setting [1], `CN1CCN(c2cc(F)c(C(=O)Nc3nc(C4(c5ccc(Br)cc5)CCCC4)cs3)c(F)c2)CC1` [Example C030, N-(4-(1-(4-bromophenyl)cyclopentyl)thiazol-2-yl)-2,6-difluoro-4-(4-methylpiperazin-1-yl)benzamide] yielded an IC50 of 1.77 µM.

On to `COc1ccc(C(C)(C)c2csc(NC(=O)c3ccc(N4CCNCC4)cn3)n2)cc1` [Example B044, N-(4-(2-(4-methoxyphenyl)propan-2-yl)thiazol-2-yl)-5-(piperazin-1-yl)picolinamide], for which it took 0.213 µM to reach half-maximal inhibition under setting [1] (IC50).

Turning to `CC(c1ccc(C(=O)Nc2nc(C(C)(C)c3ccc(Br)cc3)cs2)cc1)N1CCNCC1` (centres unmarked) [Example B019, N-(4-(2-(4-bromophenyl)propan-2-yl)thiazol-2-yl)-4-(1-(piperazin-1-yl)ethyl)benzamide], it took 0.098 µM to reach half-maximal inhibition under setting [1] (IC50).

For the molecule `C#CC(C)(c1ccc(Cl)cc1)c1csc(NC(=O)c2c(F)ccc(OC)c2F)n1` (centres unmarked) [Example B064, N-(4-(2-(4-chlorophenyl)but-3-yn-2-yl)thiazol-2-yl)-2,6-difluoro-3-methoxybenzamide], the IC50 under setting [1] was determined as 0.054 µM.

In the case of `C#CC(C)(c1ccc(Br)cc1)c1csc(NC(=O)[C@H]2C[C@H](CO)C2)n1` (mixture of isomers) [Example D005, rac-(1r,3r)-N-(4-(2-(4-bromophenyl)but-3-yn-2-yl)thiazol-2-yl)-3-(hydroxymethyl)cyclobutanecarboxamide], under setting [1], the IC50 stood at 0.098 µM.

As to `C#CC(C)(c1ccc(F)cc1)c1csc(NC(=O)c2c(F)cc(-c3cnn(C)c3N)cc2F)n1` (centres unmarked) [Example B102, 4-(5-amino-1-methyl-1H-pyrazol-4-yl)-2,6-difluoro-N-(4-(2-(4-fluorophenyl)but-3-yn-2-yl)thiazol-2-yl)benzamide], the IC50 under setting [1] came out at 1.27 µM.

Regarding `COc1ccc(C(C)(C)c2csc(NC(=O)c3ccc(NCCO)cc3)n2)cc1` [Example B060, 4-((2-hydroxyethyl)amino)-N-(4-(2-(4-methoxyphenyl)propan-2-yl)thiazol-2-yl)benzamide], under setting [1], the concentration for half-maximal inhibition (IC50) was found to be 0.28 µM.

For the molecule `C#CC(C)(c1ccc(Cl)cc1)c1csc(NC(=O)c2ccc(N3CCNCC3)c(OC)c2)n1` (centres unmarked) [Example B066, N-(4-(2-(4-chlorophenyl)but-3-yn-2-yl)thiazol-2-yl)-3-methoxy-4-(piperazin-1-yl)benzamide], under setting [1], inhibition was half-maximal at 0.184 µM (IC50).

Turning to `COc1ccc(C(C)(C)c2csc(NC(=O)NCCCC(N)=O)n2)cc1` [Example A114, 4-(3-(4-(2-(4-methoxyphenyl)propan-2-yl)thiazol-2-yl)ureido)butanamide], the half-inhibitory concentration (IC50) worked out at 0.26 µM.

Take `CC(C)(c1ccc(Br)cc1)c1csc(NC(=O)c2ccc(N3CCN(CCO)CC3)nc2)n1` [Example B054, N-(4-(2-(4-bromophenyl)propan-2-yl)thiazol-2-yl)-6-(4-(2-hydroxyethyl)piperazin-1-yl)nicotinamide]: under setting [1], half-maximal inhibition (IC50) was put at 0.269 µM.

Turning to `C#C[C@@](C)(c1ccc(Cl)cc1)c1nc(NC(=O)c2c(F)cc(N3CCNCC3)cc2F)sc1Cl` (stereo in doubt) [Example C050, N-(5-chloro-4-(2-(4-chlorophenyl)but-3-yn-2-yl)thiazol-2-yl)-2,6-difluoro-4-(piperazin-1-yl)benzamide], the 50% inhibitory concentration (IC50) under setting [1] was 0.923 µM.

`COCC(C)(c1ccccc1)c1csc(NC(=O)c2c(F)cc(N3CCNCC3)cc2F)n1` (centres unmarked) [Example C004, 2,6-difluoro-N-(4-(1-methoxy-2-phenylpropan-2-yl)thiazol-2-yl)-4-(piperazin-1-yl)benzamide] returned a concentration for half-maximal inhibition (IC50) under setting [1] of 0.022 µM.

Under setting [1], `Cc1ccc(C(C)(C)c2csc(NC(=O)c3ccc(CN4CCN(CCO)CC4)cc3)n2)cc1` [Example B058, 4-((4-(2-hydroxyethyl)piperazin-1-yl)methyl)-N-(4-(2-(p-tolyl)propan-2-yl)thiazol-2-yl)benzamide] showed an IC50 of 0.068 µM.

The molecule `COc1ccc(C(C)(C)c2csc(NC(=O)c3ccc(N4CCN(CCO)CC4)nc3)n2)cc1` [Example B053, 6-(4-(2-hydroxyethyl)piperazin-1-yl)-N-(4-(2-(4-methoxyphenyl)propan-2-yl)thiazol-2-yl)nicotinamide] yielded an IC50 under setting [1] of 0.104 µM.

In turn, `C#CC(C)(c1ccc(Cl)cc1)c1csc(NC(=O)c2c(F)cc(N3CCNCC3CC)cc2F)n1` (centres unmarked) [Example B101, N-(4-(2-(4-chlorophenyl)but-3-yn-2-yl)thiazol-2-yl)-4-(2-ethylpiperazin-1-yl)-2,6-difluorobenzamide] gave an IC50 under setting [1] of 0.07 µM.

Turning to `CCOCC(C)(c1ccccc1)c1csc(NC(=O)c2c(F)cc(N3CCNCC3)cc2F)n1` (centres unmarked) [Example C031, N-(4-(1-ethoxy-2-phenylpropan-2-yl)thiazol-2-yl)-2,6-difluoro-4-(piperazin-1-yl)benzamide], the IC50 under setting [1] is 0.642 µM.

`Cc1ccc(C(C)(C)c2csc(NC(=O)c3ccc(N4CCNCC4)cc3)n2)cc1` [Example B031, 4-(piperazin-1-yl)-N-(4-(2-(p-tolyl)propan-2-yl)thiazol-2-yl)benzamide] yielded an IC50 under setting [1] of 0.037 µM.

Consider `COc1ccc(C(C)(C)c2csc(NC(=O)c3ccc(CN4CCN(CCO)CC4)cc3)n2)cc1` [Example B034, 4-((4-(2-hydroxyethyl)piperazin-1-yl)methyl)-N-(4-(2-(4-methoxyphenyl)propan-2-yl)thiazol-2-yl)benzamide], for which the IC50 under setting [1] came out at 0.044 µM.

For `CC(C)(c1ccc(F)cc1)c1csc(NC(=O)c2c(F)cc(N3CCNCC3)cc2F)n1` [Example C005, 2,6-difluoro-N-(4-(2-(4-fluorophenyl)propan-2-yl)thiazol-2-yl)-4-(piperazin-1-yl)benzamide], the IC50 under setting [1] was found to be 0.006 µM.

Take `Cc1ccc(C(C)(C)c2csc(NC(=O)c3ccc(CN4CCN(C)CC4)cc3)n2)cc1` [Example B046, 4-((4-methylpiperazin-1-yl)methyl)-N-(4-(2-(p-tolyl)propan-2-yl)thiazol-2-yl)benzamide]: under setting [1], the half-maximal inhibitory concentration (IC50) was 0.028 µM.

Under setting [1], `C#CC(C)(c1csc(NC(C)=O)n1)c1ccc(Br)cc1F` (centres unmarked) [Example D003, N-(4-(2-(4-bromo-2-fluorophenyl)but-3-yn-2-yl)thiazol-2-yl)acetamide] had an IC50 of 0.183 µM.

`COc1ccc(C(C)(C)c2csc(NC(=O)NCc3cnc(N4CCNCC4)c(C(N)=O)c3)n2)cc1` [Example A209, 5-((3-(4-(2-(4-methoxyphenyl)propan-2-yl)thiazol-2-yl)ureido)methyl)-2-(piperazin-1-yl)nicotinamide] registered a concentration for half-maximal inhibition (IC50) of 0.043 µM.

In turn, `COc1ccc(C(C)(C)c2csc(NC(=O)c3ccc(N4CCC(O)C4)cc3)n2)cc1` (centres unmarked) [Example B009, 4-(3-hydroxypyrrolidin-1-yl)-N-(4-(2-(4-methoxyphenyl)propan-2-yl)thiazol-2-yl)benzamide] registered a half-inhibitory concentration (IC50) under setting [1] of 0.951 µM.

In turn, `C#C[C@@](C)(c1ccc(Cl)cc1)c1csc(NC(=O)c2c(F)cc(N3CCC(N)C3)cc2F)n1` (stereo in doubt) [Example B087, 4-(3-aminopyrrolidin-1-yl)-N-(4-(2-(4-chlorophenyl)but-3-yn-2-yl)thiazol-2-yl)-2,6-difluorobenzamide] returned an IC50 under setting [1] of 0.038 µM.

For the molecule `C#C[C@@](C)(c1ccc(Cl)cc1)c1csc(NC(=O)c2ccc(N3CCNC(CO)C3)cc2)n1` (stereo in doubt) [Example B077, N-(4-(2-(4-chlorophenyl)but-3-yn-2-yl)thiazol-2-yl)-4-(3-(hydroxymethyl)piperazin-1-yl)benzamide], under setting [1], it took 0.09 µM to reach half-maximal inhibition (IC50).

For `CC1CNCCN1c1ccc(CNC(=O)Nc2nc(C(C)(C)c3ccc(Br)cc3)cs2)cc1` (centres unmarked) [Example A029, 1-(4-(2-(4-bromophenyl)propan-2-yl)thiazol-2-yl)-3-(4-(2-methylpiperazin-1-yl)benzyl)urea], the midpoint of inhibition, the IC50, lay at 0.073 µM.

In turn, `COc1ccc(C(C)(C)c2csc(NC(=O)c3ccc(N4CCC(N(C)C)C4)nc3)n2)cc1` (centres unmarked) [Example B010, 6-(3-(dimethylamino)pyrrolidin-1-yl)-N-(4-(2-(4-methoxyphenyl)propan-2-yl)thiazol-2-yl)nicotinamide] showed an IC50 under setting [1] of 0.187 µM.

Molecule `CC(C)(c1ccc(Br)cc1)c1csc(NC(=O)NCc2cnc(N3CCNC(=O)C3)c(F)c2)n1` [Example A112, 1-(4-(2-(4-bromophenyl)propan-2-yl)thiazol-2-yl)-3-((5-fluoro-6-(3-oxopiperazin-1-yl)pyridin-3-yl)methyl)urea] had a 50% inhibitory concentration (IC50) of 0.334 µM.

Take `CC(C)(c1ccc(Br)cc1)c1csc(NC(=O)c2ccc(C(N)=O)cc2)n1` [Example B003, N-(4-(2-(4-bromophenyl)propan-2-yl)thiazol-2-yl)terephthalamide]: the IC50 under setting [1] was determined as 0.192 µM.

In the case of `COc1ccc(C(C)(C)c2csc(NC(=O)c3ccc(N4CCC(N)C4)nc3)n2)cc1` (centres unmarked) [Example B043, 6-(3-aminopyrrolidin-1-yl)-N-(4-(2-(4-methoxyphenyl)propan-2-yl)thiazol-2-yl)nicotinamide], under setting [1], half-maximal inhibition (IC50) required 0.14 µM.

Molecule `C#CC(C)(c1ccc(Br)cc1)c1csc(NC(=O)[C@H]2C[C@@H](CO)C2)n1` (mixture of isomers) [Example D006, rac-(1s,3s)-N-(4-(2-(4-bromophenyl)but-3-yn-2-yl)thiazol-2-yl)-3-(hydroxymethyl)cyclobutanecarboxamide] gave an IC50 under setting [1] of 0.04 µM.
